Measurements as given in a melting point compilation (Tetko et al.; mined from patent text by program, amines drawn as free bases though some values may be those of a salt).

Row | Compound | melting point [°C]
1 | CCOCc1cc(O)cc2cc(-c3ccc(O)cc3)oc12 | 166 to 168
2 | OCCNc1ccnc2ccccc12 | 152 to 154
3 | COC(F)(F)C(F)(F)C(N)=O | 78 to 80
4 | CCOC(=O)/C=C(/c1ccc(CC)cc1)c1cc(Cl)cc(Cl)c1 | 73 to 75
5 | CC(C)c1nc(-c2ccccc2)nc(-c2ccc(F)cc2)c1C=CI | 119 to 122
6 | COc1cc(O)cc2c1-c1c(O)cccc1C2=O | 71 to 72
7 | O=CC=CC(=C(c1ccc(F)cc1)c1ccc(F)cc1)n1cnnn1 | 152 to 154
8 | NC(C(=O)O)c1cc(O)cc(O)c1[N+](=O)[O-] (stereo not given) | > 280
9 | CCc1nc2c(N)nc3ccc(O)cc3c2n1C | > 240
10 | Cc1ncc(CCCOc2c(C)cc(-c3noc(C(F)(F)F)n3)cc2C)s1 | 62 to 64
11 | Cc1ccc(C(=O)OCn2ncc(=O)[nH]c2=O)cc1 | 139
12 | COc1nc2ccccc2nc1NC(=O)N1CCN(c2ccccc2C(C)C)CC1 | 147 to 149
13 | CC(=O)NC[C@H]1CN(c2ccc(C3=CCOCC3)c(F)c2)C(=O)O1 | 148 to 151
14 | NN=Cc1ccc(C(=O)NC2CCC3(CC2)CN(CC(=O)O)C(=O)O3)cc1 (stereo not given) | 280 to 284
15 | NC(=O)CCCCC(=O)c1ccccc1 | 113 to 114
16 | CCOC(=O)C1=C(C)NC(C)=C(C(=O)OC)C1c1ccccc1Cl (stereo not given) | 125 to 127
17 | S=c1nc(-c2ccc(Br)cc2)[nH]n1Cc1ccccc1 | 250 to 251

Now from value to molecule:

Row | melting point [°C] | Compound
18 | 194 to 195 | CC(C)CN1CCC(N(C)S(=O)(=O)c2ccc(Nc3nccc(Nc4ccc(F)cc4)n3)cc2)CC1
19 | 142 to 150 | CN1C(=O)CC[C@]2(C)c3ccc(-c4ccccc4F)cc3CC[C@@H]12
20 | 86 | CC(=O)OCCOCCN1CCC(CNC(=O)[C@@H]2CCCN2S(=O)(=O)c2ccc(Cl)c(COc3cccc4c(-n5cncn5)cc(C)nc34)c2Cl)CC1
21 | 45 to 46 | CC(C)(C)CCCC(=O)Cn1ccnc1
22 | 191 to 192 | O=C(O)c1cc(-c2ccccc2F)ns1
23 | 82 to 83 | O=C(c1ccccc1)N1CCCC(c2nc(-c3ccc(F)cc3)no2)C1 (stereo not given)
24 | 88 to 89 | COc1ccc(Cl)c(Oc2c(Cl)ncnc2Cl)c1
25 | 207 to 208 | CCCc1cc(-c2ccc(Cl)cc2)nc2c(C(=O)Nc3cccc(S(=O)(=O)NC(C)(C)CO)c3)cnn12
26 | 75 to 77 | CC(C)=CCOc1ccc(C(=O)C=Cc2ccco2)c(O)c1
27 | 173 to 174 | NNc1ccc(-c2cccc(Cl)c2)nn1
28 | 179 to 180 | CS(=O)(=O)c1ccc(C2=C(c3cccc(F)c3)CN(C3CC3)C2=O)cc1
29 | 88 to 89 | CCO/C(=C\c1ccsc1)C(=O)O
30 | 163 to 164 | C=CCN(CC=C)c1nc(NC(=O)c2ccc(Cl)cc2Cl)n2oc(=O)nc2n1
31 | 172 to 173 | Cc1ccccc1CC(=NC#N)NC(NC(=O)Cc1ccc2ncccc2c1)C(C)(C)C (stereo not given)
32 | 208 to 209 | Cn1c2cccc(Br)c2c2nc3ccccc3nc21
33 | 196 to 198 | Clc1ccc(N2CCN(Cc3c[nH]c4ncccc34)CC2)nc1
34 | 64 | O=C(N[C@@H](Cc1ccccc1)C(=O)CSCc1ccco1)OCc1ccccc1
35 | 296 to 298 | CC(C)c1ccc(-c2cnc(-c3cccc(C(=O)O)c3)[nH]2)cc1
36 | 60 to 70 | NC(=O)CNCc1noc([C@H](CCCC2CCCCC2)CC(=O)NO)n1
37 | 121 to 122 | CC(=O)OC1OCC[C@@H]1NC(=O)[C@H](CC(C)C)NC(=O)[C@H](CC(C)C)NC(=O)c1ccc2c(c1)Nc1ccccc1S2 (stereo not given in full)
38 | 108 to 109 | COCOc1ccc(CCCOc2nn(Cc3ccccc3)cc2CC(=O)O)c(Oc2ncc(C(F)(F)F)cc2Cl)c1
39 | 223 to 225 | O=C(c1cc2c(Br)cccc2o1)c1cc2c(Br)cccc2o1
40 | 113 to 114 | CCOC(=O)C1=C(Cl)N=C(C)N(C(=O)OC)C1c1cccc([N+](=O)[O-])c1 (stereo not given)
